Source: ChEMBL document CHEMBL1177812, “Hydroxysafflor Yellow A suppresses thrombin generation and inflammatory responses following focal cerebral ischemia-reperfusion in rats” (2010)
Calls of active or inactive are those of the source. No cut-off for these calls is given here.

Key:
Rattus norvegicus [1] = assay: Antiinflammatory activity in Wistar rat brain assessed as inhibition of ischemia reperfusion injury-induced NF-kappaB nuclear translocation at 2 to 8 mg/kg, iv; format: functional, organism-based
Rattus norvegicus [2] = assay: Antiinflammatory activity in Wistar rat brain assessed as inhibition of ischemia reperfusion injury-induced p65 subunit binding to DNA at 2 to 8 mg/kg, iv by EMSA; format: functional, organism-based
Rattus norvegicus [3] = assay: Neuroprotective activity against ischemia reperfusion injury in Wistar rat assessed as thrombin-antithrombin complex at 4 mg/kg, iv by enzyme immunoassay (RVb = 3.45 +/- 0.57 ug/L); format: functional
Rattus norvegicus [4] = assay: Antiinflammatory activity in Wistar rat assessed as reduction in ischemia reperfusion injury-induced ICAM1 protein expression at 2 to 8 mg/kg, iv by Western blotting; format: functional, organism-based
Rattus norvegicus [5] = assay: Neuroprotective activity against ischemia reperfusion injury in Wistar rat assessed as factor 7 level at 8 mg/kg, iv by amidolytic method (RVb = 1.24 +/- 0.34 mg/L); format: functional
Rattus norvegicus [6] = assay: Neuroprotective activity against ischemia reperfusion injury in Wistar rat assessed as factor 7 level at 2 mg/kg, iv by amidolytic method (RVb = 1.24 +/- 0.34 mg/L); format: functional
Rattus norvegicus [7] = assay: Neuroprotective activity against ischemia reperfusion injury in Wistar rat assessed as fibrinogen level at 2 mg/kg, iv by polymerization time method (RVb = 1.45 +/- 0.35 g/L); format: functional
Rattus norvegicus [8] = assay: Neuroprotective activity against ischemia reperfusion injury in Wistar rat assessed as […] 1+2 at 2 mg/kg, iv by enzyme immunoassay (RVb = 1.97 +/- 0.44 ug/L); format: functional
Rattus norvegicus [9] = assay: Neuroprotective activity against ischemia reperfusion injury in Wistar rat hippocampal formation assessed as reduction in prothrombin mRNA level at 2 to 8 mg/kg, iv; format: functional, organism-based; conditions: Hippocampus
Rattus norvegicus [10] = assay: Antiinflammatory activity in Wistar rat brain assessed as reduction in ischemia reperfusion injury-induced MPO activity at 2 to 8 mg/kg, iv; format: functional, organism-based
Rattus norvegicus [11] = assay: Neuroprotective activity against ischemia reperfusion injury in Wistar rat assessed as fibrinogen level at 8 mg/kg, iv by polymerization time method (RVb = 1.45 +/- 0.35 g/L); format: functional
Rattus norvegicus [12] = assay: Neuroprotective activity against ischemia reperfusion injury in Wistar rat assessed as thrombin-antithrombin complex at 8 mg/kg, iv by enzyme immunoassay (RVb = 3.45 +/- 0.57 ug/L); format: functional
Rattus norvegicus [13] = assay: Neuroprotective activity against ischemia reperfusion injury in Wistar rat assessed as […] 1+2 at 8 mg/kg, iv by enzyme immunoassay (RVb = 1.97 +/- 0.44 ug/L); format: functional
Rattus norvegicus [14] = assay: Antiinflammatory activity in Wistar rat assessed as reduction in ischemia reperfusion injury-induced ICAM1 mRNA expression at 2 to 8 mg/kg, iv by RT-PCR; format: functional, organism-based
Rattus norvegicus [15] = assay: Neuroprotective activity in Wistar rat assessed as ischemia reperfusion injury-induced plasma angiotensin level at 2 to 8 mg/kg, iv by radioimmunoassay; format: functional, organism-based
Rattus norvegicus [16] = assay: Antiinflammatory activity in Wistar rat hippocampus assessed as reduction in ischemia reperfusion injury-induced IkappaB alpha protein expression at 2 to 8 mg/kg, iv by Western blotting; format: functional, organism-based
Rattus norvegicus [17] = assay: Neuroprotective activity against ischemia reperfusion injury in Wistar rat assessed as factor 7 level at 4 mg/kg, iv by amidolytic method (RVb = 1.24 +/- 0.34 mg/L); format: functional
Rattus norvegicus [18] = assay: Neuroprotective activity against ischemia reperfusion injury in Wistar rat assessed as fibrinogen level at 4 mg/kg, iv by polymerization time method (RVb = 1.45 +/- 0.35 g/L); format: functional
Rattus norvegicus [19] = assay: Neuroprotective activity against ischemia reperfusion injury in Wistar rat assessed as thrombin-antithrombin complex at 2 mg/kg, iv by enzyme immunoassay (RVb = 3.45 +/- 0.57 ug/L); format: functional
Rattus norvegicus [20] = assay: Neuroprotective activity against ischemia reperfusion injury in Wistar rat assessed as […] 1+2 at 4 mg/kg, iv by enzyme immunoassay (RVb = 1.97 +/- 0.44 ug/L); format: functional

`O=C(/C=C/c1ccc(O)cc1)C1=C(O)C(O)([C@@H]2O[C@H](CO)[C@@H](O)[C@H](O)[C@H]2O)C(O)=C([C@@H]2O[C@H](CO)[C@@H](O)[C@H](O)[C@H]2O)C1=O` (stereo not given in full) [HYDROXYSAFFLOR YELLOW A] was tested, and the Activity (Rattus norvegicus [1]) was “Active”, the Activity (Rattus norvegicus [2]) was “Active” and the Activity (Rattus norvegicus [3]) was 1.89 µg/L. The Activity (Rattus norvegicus [4]) was “Active”, the Activity (Rattus norvegicus [5]) was 1.01 mg/L and the Activity (Rattus norvegicus [6]) was 1.21 mg/L. For the same compound, the Activity (Rattus norvegicus [7]) was 2.06 g/L, the Activity (Rattus norvegicus [8]) was 1.38 µg/L and the Activity (Rattus norvegicus [9]) was “Active”. The Activity (Rattus norvegicus [10]) was “Active”, the Activity (Rattus norvegicus [11]) was 1.55 g/L and the Activity (Rattus norvegicus [12]) was 1.48 µg/L. For the same compound, the Activity (Rattus norvegicus [13]) was 0.54 µg/L, the Activity (Rattus norvegicus [14]) was “Active” and the Activity (Rattus norvegicus [15]) was “Active”. The Activity (Rattus norvegicus [16]) was “Active”, the Activity (Rattus norvegicus [17]) was 1.19 mg/L and the Activity (Rattus norvegicus [18]) was 1.9 g/L. For the same compound, the Activity (Rattus norvegicus [19]) was 2.39 µg/L and the Activity (Rattus norvegicus [20]) was 0.8 µg/L.
